Source: patent US20050182122A1, “Method of treating abnormal cell growth using indolinone compounds” (priority 2003, published 2005)
Several values for one entry are separate records, joined by “and”; a condition that tells them apart may be missing. Identical values can stand only once. One block for each compound: values may come before it.

Experiments:
[1] = Example 2: AML patients, toxicities; type: in vivo, human
Procedure: (§1) Constitutively activating mutations of the receptor FLT3 are present in approximately 30% of patients with AML and correlate with poor prognosis. […] Two dose levels (50 and 75 mg) and 2 schedules (Group A: 4 weeks of treatment followed by a 14 day rest period; and Group B: 4 weeks of treatment followed by a 7 day rest period) were evaluated in 3 cohorts of patients. Flt3 genotyping for ITD and D835 mutations was performed to enable retrospective stratification. Correlative laboratory studies to assess inhibition of target phosphorylation, and modulation of signaling pathways regulating apoptosis and proliferation were performed by Western blot and immunohistochemistry analyses and FL expression and IHC were conducted.

[2] = test system: metastatic renal cell carcinoma (RCC); assay: Example 1: metastatic renal cell carcinoma patients, best response by RECIST; type: in vivo, human
From the text: (§2) Eligibility included measurable disease, ECOG performance status of 0 or 1, failure of one prior cytokine-based therapy due to disease progression or toxicity, and adequate cardiac function as defined by normal ejection fraction on MUGA or ECHO. Patients were excluded if they had significant cardiac events within the past 12 months or received more than one prior cytokine regimen.

[3] = Example 3: solid tumor patients, dose limiting toxicities; type: in vivo, human
From the text: (§3) The patients were characterized as follows: 15 male, 13 female; age range 33-78 years; median age 55 years; median PS 0; WHO PS, 0 (22 patients), 1 (3 patients), 2 (3 patients). The number of pretreatment regimens ranged from 0 to 9, with a median of 2. The tumors types (number of patients) were: renal cell carcinoma (4); neuroendocrine tumors (4); colorectal cancer (3); non-small cell lung cancer (2); mesotheliomas (2); uterine carcinoma (2); breast cancer (2); pancreas (2); angiosarcoma (2); esophagus (1); undifferentiated carcinoma of nasopharynx (1); parotid adenocarcinoma (1); melanoma (1); gastrointestinal stromal tumor (1). […] All other trials were dosed with flat doses (i.e., mg). All dosage amounts are free-base equivalents. A plus symbol (+) following the number of cycles indicates the patient was still on study at the date the data were summarized.

primary or secondary AML = assay: Example 2: AML patients, clinical activity by WHO criteria; type: in vivo, human; parameters: key to Best Response: NE: not evaluated; PR: partial response; SD: stable disease; PD: Progressive Disease; settings: for Best Response: AML, one line per patient
Procedure: as §1

[4] = Example 1: metastatic renal cell carcinoma patients, adverse events; type: in vivo, human
From the text: as §2

solid tumors = assay: Example 3: solid tumor patients, antitumor activity; type: in vivo, human
From the text: as §3

[5] = test system: bone marrow engraftment model; assay: bone marrow engraftment model; type: in vivo; settings: pre-clinical experiments
FLT3 = assay: Example 2: AML patients, FLT3 phosphorylation and expression (Western blot, immunohistochemistry); type: in vivo, human
Procedure: as §1

blood/plasma half life = type: in vivo
Procedure: Administration of the compound of formula 1, or its active metabolite 2, in an effective dosing regimen, must take into account the long blood/plasma half lives of these two compounds, approximately 40 and 80 hours, respectively, as well as their safety profiles. Thus, there is a need for safe and therapeutically effective dosing regimens for administering the compounds of formula 1 and 2 to a mammal, including a human, for treating abnormal cell growth, such as cancer.

FLT3-ITD xenograft tumor = FLT3-ITD xenograft tumor model; type: in vivo; settings: pre-clinical experiments
[6] = 15 AML patients, 50 or 75 mg daily
[7] = 15 AML patients, 50 or 75 mg daily, 4 weeks treatment, 14 or 7 day rest, mainly grade 1-2
[8] = 63 metastatic RCC patients, 50 mg daily orally 4 weeks, 2-week rest
[9] = preliminary safety data N=44, 50 mg daily 4 weeks/2-week rest, mostly grades 1 and 2
[10] = preliminary safety data N=44, without signs of pancreatitis
[11] = all dosing schedules, 23 evaluable

SMILES: CCN(CC)CCNC(=O)c1c(C)[nH]c(/C=C2\C(=O)Nc3ccc(F)cc32)c1C [5-(5-fluoro-2-oxo-1,2-dihydroindol-(3Z)-ylidenemethyl)-2,4-dimethyl-1H-pyrrole-3-carboxylic acid (2-diethylaminoethyl)-amide]
- Grade 3 drug related fatigue, patients [1, 6]: 20%
- toxicity: diarrhea [1, 7]: 13%
- toxicity: fatigue [1, 7]: 27%
- toxicity: nausea [1, 7]: 33%
- toxicity: vomiting [1, 7]: 13%
- dose limiting toxicity, fatigue grade 4 (number) ([1]; at 75 mg): One
- taken off study for PD ([2]; 63 metastatic RCC patients): Twelve
- Best response by RECIST: confirmed partial, patients [2, 8]: 16%
- Best response by RECIST: progression, patients [2, 8]: 27%
- Best response by RECIST: stable, patients [2, 8]: 41%
- reduction of unidimensional measurement of at least 30%, awaiting confirmation of response status, patients [2, 8]: 10%
- partial responders remaining progression free ([2]; of 10 patients with partial response, median follow-up of 4 months from start of therapy): 9
- partial responders who progressed ([2]; of 10 patients with partial response, progressed at 5 months): 1 patient
- patients with dose limiting toxicities at cycle 1 ([3]; 50 mg daily patients): 2 of 9
- dose limiting toxicity grade 3 edema ([3]; 50 mg daily patients, cycle 1): 1 patient
- dose limiting toxicity grade 4 thrombocytopenia ([3]; 50 mg daily patients, cycle 1): 1 patient
- patients with dose limiting toxicities at cycle 1 ([3]; 75 mg daily patients): 5 of 11
- dose limiting toxicity grade 3 asthenia ([3]; 75 mg daily patients, cycle 1): 3 patients
- dose limiting toxicity grade 3 hypertension ([3]; 75 mg daily patients, cycle 1): 1 patient
- dose limiting toxicity grade 5 tumor necrosis ([3]; 75 mg daily patients, cycle 1): 1 patient
- patients with dose limiting toxicities at cycle 1 ([3]; 100 mg daily patients): 2 of 3
- dose limiting toxicity grade 3 asthenia ([3]; 100 mg daily patients, cycle 1): 1 patient
- dose limiting toxicity grade 3 hypertension ([3]; 100 mg daily patients, cycle 1): 1 patient
- course of asthenia ([3]; cycle 1): progressively from grade 1 at week 1 to grade 3-4 at week 4
- main dose-limiting toxicity ([3]; doses greater than or equal to 50 mg, appeared during cycle 1): Asthenia
- rest period required for reversal of grade 3 asthenia ([3]; human, in vivo): 2-4 week
- dose limiting toxicity at cycle 1 ([3]; the 150 mg daily patient): grade 3 asthenia
- evidence of clinical activity of short duration by WHO criteria (primary or secondary AML; [6]): 7 patients
- morphologic response (less than 5% blasts in bone marrow, absence of blasts in peripheral blood), number of patients (primary or secondary AML; [6]): 1
- partial responses (reduction of blasts by more than 50% in blood and bone marrow), number of patients (primary or secondary AML; [6]): 6
- Best Response (primary or secondary AML; 50 mg daily, schedule 4/1 weeks treatment/rest): SD (3×) and PR (2×)
- Best Response (primary or secondary AML; 50 mg daily, schedule 4/2 weeks treatment/rest): PD (3×) and PR (3×) and Morph. R
- Best Response (primary or secondary AML; 75 mg daily, schedule 4/2 weeks treatment/rest): PR
- rebound of blasts during the treatment-free (rest) period, patients (primary or secondary AML; of the 7 patients with clinical activity): 2
- responding patients with mutated FLT3 (ITD or D835) (primary or secondary AML; of the responding patients): Three
- taken off study for toxicity ([4]; 63 metastatic RCC patients): 8 patients
- Grade 3 event: anemia ([4]; preliminary safety data N=44): 5%
- Grade 3 event: leukocytopenia ([4]; preliminary safety data N=44): 5%
- Grade 3 event: lymphopenia ([4]; preliminary safety data N=44): 32%
- Grade 3 event: neutropenia ([4]; preliminary safety data N=44): 9%
- grade 3 thrombocytopenia ([4]; preliminary safety data N=44): no patients
- adverse event constipation, frequency [4, 9]: 34%
- adverse event diarrhea, frequency [4, 9]: 46%
- adverse event dyspepsia, frequency [4, 9]: 30%
- adverse event fatigue/asthenia, frequency [4, 9]: 67%
- adverse event nausea, frequency [4, 9]: 50%
- adverse event stomatitis, frequency [4, 9]: 43%
- Grade 3 event: elevated amylase [4, 10]: 9%
- Grade 3 event: elevated lipase [4, 10]: 23%
- decreases in left ventricular ejection fraction >20% without clinical symptoms ([4]; taken off the study): Two
- Tumor Progression (solid tumors; 50 mg Q2D, 3 patients): 3
- Tumor Response (#) (solid tumors; 50 mg Q2D, 3 patients): 0
- Tumor Stabilization (#) (solid tumors; 50 mg Q2D, 3 patients): 0
- Tumor Stabilization, Time (solid tumors; 50 mg QD): 8 months
- Tumor Progression (solid tumors; 50 mg QD, 6 patients): 5
- Tumor Response (#) (solid tumors; 50 mg QD, 6 patients): 0
- Tumor Stabilization (#) (solid tumors; 50 mg QD, 6 patients): 1
- Tumor Progression (solid tumors; 75 mg QD, 9 patients): 0
- Tumor Response (#) (solid tumors; 75 mg QD, 9 patients): 3
- Tumor Stabilization (#) (solid tumors; 75 mg QD, 9 patients): 2
- Tumor Stabilization, Time (solid tumors; 75 mg QD, one value per patient): 4 months and 5 months
- Tumor Progression (solid tumors; 100 mg Q2D, 1 patient): 0
- Tumor Response (#) (solid tumors; 100 mg Q2D, 1 patient): 1
- Tumor Stabilization (#) (solid tumors; 100 mg Q2D, 1 patient): 0
- Tumor Stabilization, Time (solid tumors; 100 mg QD): 6 months
- Tumor Progression (solid tumors; 100 mg QD, 3 patients): 0
- Tumor Response (#) (solid tumors; 100 mg QD, 3 patients): 2
- Tumor Stabilization (#) (solid tumors; 100 mg QD, 3 patients): 1
- Tumor Stabilization, Time (solid tumors; 150 mg QD): 3 months
- Tumor Progression (solid tumors; 150 mg QD, 1 patient): 0
- Tumor Response (#) (solid tumors; 150 mg QD, 1 patient): 0
- Tumor Stabilization (#) (solid tumors; 150 mg QD, 1 patient): 1
- Tumor Progression, totals (solid tumors; [11]): 8/23
- Tumor Response (#), totals (solid tumors; [11]): 6/23
- Tumor Stabilization (#), totals (solid tumors; [11]): 5/23

- half-life (blood/plasma half life): ~40 h
SMILES: CCN(CC)CCNC(=O)c1c(C)[nH]c(/C=C2\C(=O)Nc3ccc(F)cc32)c1C [Compound 1, 5-(5-fluoro-2-oxo-1,2-dihydroindol-(3Z)-ylidenemethyl)-2,4-dimethyl-1H-pyrrole-3-carboxylic acid (2-diethylaminoethyl)-amide]
- tolerability in advanced AML population ([1]; 50 mg dose): tolerable
- efficacy in bone marrow engraftment model [5]: dose-dependent efficacy
- target inhibition (FLT3; 50 mg dose): consistently observed
- time to decreased FLT3 protein expression (FLT3; patient with FLT3 ITD mutation, Group B, consistent with decreasing blast counts): ≤ 8 days
- FLT3 phosphorylation after administration (FLT3; patient with FLT3 ITD mutation, Group B, similar in 2 other FLT3 mutant patients): inhibition of FLT3 phosphorylation
- duration of partial response (primary or secondary AML; one patient with FLT3 ITD mutation, Group B (50 mg daily, 4 weeks treatment/7 day rest)): 4 month
- efficacy in FLT3-ITD xenograft tumor model (FLT3-ITD xenograft tumor): dose-dependent efficacy

- half-life (blood/plasma half life): ~80 h
SMILES: CCNCCNC(=O)c1c(C)[nH]c(/C=C2\C(=O)Nc3ccc(F)cc32)c1C [Compound 2, 5-(5-fluoro-2-oxo-1,2-dihydroindol-(3Z)-ylidenemethyl)-2,4-dimethyl-1H-pyrrole-3-carboxylic acid (2-ethylaminoethyl)-amide]
